# Source: patent publication US12485117B2, “Compositions and methods for activating signaling through the CB1 cannabinoid receptor for treating and preventing diseases and disorders characterized by abnormal cellular accumulation of sphingolipids such as sphingomyelin” (Wylder Nation Foundation, priority 2018, dated 2025)
# What was measured:
# [1] = tested on: cultured primary hippocampal neurons from ASMko mice; assay: Sphingomyelin levels by enzymatic assay in cultured primary hippocampal neurons from ASMko mice; assay type: cell-based, mouse
# Text: FIGS. 5A-5D show sphingomyelin and endocannabinoid levels in cultured primary hippocampal neurons and hippocampal tissue, respectively, from ASMko and wildtype mice.
# Statistical significance Student's t-test, *P<0.05, **P<0.005, n=3 independent cultures.
# Statistical significance Student's t-test, **P<0.005, n=3 independent cultures.
# Anandamide (AEA) is the major endogenous CB1 ligand. We therefore tested whether increased levels of anandamide affected sphingomyelin levels in cultured primary hippocampal neurons from ASMko mice. Anandamide was increased in two ways: • 1. By incubating the neuronal cultures with exogenous anandamide; and • 2. By incubating the neuronal cultures with PF-04457845, which is an inhibitor of the anandamide hydrolytic enzyme FAAH. Inhibition of FAAH causes accumulation of anandamide by inhibiting FAAH-mediated hydrolyzation of anandamide.
# The following experiments were performed in three independent cultures of hippocampal neurons derived from ASMko mice. Treatments were done at 11-13 days in vitro when these cells are considered mature and functional.
# To set the optimal conditions for such hydrolysis in terms of concentration and time of incubation, anandamide was added to the culture medium of mature ASMko hippocampal neurons at 0, 5, 25, 50 and 100 μM for 30 minutes or 1 hour. […] The optimal conditions for SM degradation were in a range of concentration of 25-50 μM for 1 hour. […] We therefore decided to use 25 μM anandamide for 1-hour incubation time in our next experiments.
# Similar to the anandamide dose/time response experiment above, we performed another dose response experiment using URB597 (URB), an inhibitor of the anandamide-hydrolyzing enzyme FAAH, to be used as reference for the other FAAH inhibitors. The experiments were done in the presence or absence of exogenous anandamide. URB was added to the culture medium of ASMko mature neurons at 0, 5, 25 and 50 μM for 1 hour with or without □□ μM anandamide.
# We next compared URB efficacy to reduce SM levels with that of other FAAH inhibitors PF-04457845 (PF) and JNJ-1661010 (JNJ).
# [2] = tested on: wt and ASMko mice; assay: Tail Suspension Test; assay type: in vivo, mouse; settings: 0.3 mg/kg every three days
# Experimental: FIGS. 13A-13C show the effect of PF-04457845 treatment on various behavioral functions. […] (n=14; **p<0.01, *p<0.05).
# (§1) Treatment started at 7 weeks of age and continued for 8 weeks. PF-04457845 was dissolved in 0.9% NaCl and delivered through oral gavage at a dose of 0.3 mg/kg every three days. We chose this dose based on the studies published by Ahn et al., (J Pharm Exp Ther 2011). Control groups received same volume of 0.9% NaCl without PF-04457845.
# Mood alterations were monitored by the Tail Suspension Test (FIG. 13B) and by the Elevated Plus Maze test (FIG. 13C) that give an idea of depressive state and anxiety, respectively. […] PF-04457845 treatment had no effect in the behavior of wt mice.
# [3] = tested on: astrocytes; assay: Astrocytes by GFAP immunofluorescence; assay type: in vivo, mouse; settings: 0.3 mg/kg every three days
# Experimental: Representative images of astrocytes stained for GFAP (red) in the cerebellum, hippocampus and cortex of wt and ASMko mice treated or not with PF-04457845. […] Graphs show mean±SEM GFAP intensity in arbitrary units (n=7, **p<0.01, *p<0.05).
# as §1
# Brain inflammation was determined by analysis of glial cells in the cerebellum, hippocampus and cortex. The number and morphology of microglia was analyzed by immunofluorescence staining with the marker iba-1 (FIG. 16). […] PF-04457845 treatment had no effect in microglia of wt mice. The amount of astrocytes was analyzed by immunofluorescence with the marker GFAP (FIG. 17). […] PF-04457845 treatment had no effect in astrocytes of wt mice (FIG. 17).
# [4] = tested on: wt and ASMko mice; assay: Acute toxicity: sphingomyelin levels by enzymatic assay in brain areas and liver; assay type: in vivo, mouse; settings: 48 hours
# Experimental: (§2) We divided wt and ASMko mice of 4.5 months of age in six experimental groups: ASMko control (n=3), ASMko low dose (n=3), ASMko intermediate dose (n=3), ASMko high dose (n=3), wt control (n=3), wt high dose (n=3). PF-04457845, provided as powder, was dissolved in 0.9% NaCl and administered to mice through oral gavage. Vehicle groups received same volume of 0.9% NaCl.
# Doses have been calculated taking into account that used in the study conducted in healthy humans (Li et al., Br J Clin Pharmacol 2011, 73:706-716). […] Estimating an average weight of 60 kg for an adult human the daily dose equals to 0.0083 mg/kg. This dose was very similar to that used in our first 8 week-long treatment with PF-04457845 in ASMko mice, which according to the formulas to calculate equivalence between humans and mice (Nair and Jacob J Basic Clin Pharma 2016, 7:27-31) corresponded to a daily HED dose of 0.0072 mg/kg. For this toxicity study we agreed to take into account the human dose: 0.0083 mg/kg. Formula conversion to mouse dose: HED (mg/kg)=Mouse dose (mg/kg)×mouseKm/Human Km).
# Sphingomyelin levels were quantified by enzymatic assay in extracts from different brain areas (hippocampus, cerebellum and cortex) and from liver of wt and ASMko mice treated with PF-04457845 at 0.1 mg/kg, 1 mg/kg and 5 mg/kg or with vehicle (FIG. 26). The results confirmed the remarkable increase of sphingomyelin levels in the vehicle-treated ASMko mice with respect to wt at this advanced stage of the disease (168% in hippocampus, 170% in cerebellum, 139% in cortex and 216% in liver with respect to wt values considered 100%).
# [5] = tested on: wt and ASMko mice; assay: Acute toxicity: H&E staining of brain and liver; assay type: in vivo, mouse; settings: any of the doses
# Experimental: FIGS. 27A-27C show H&E staining in wt and ASMko mice treated or not treated with PF-04457845.
# as §2
# Brain and liver tissue was stained with H&E to evaluate histopathological features.
# In the liver foam cells showing white vacuoles indicative of lipid accumulation were evident in vehicle treated ASMko mice compared to wt (FIG. 28).
# [6] = ASMko mice, single dose of 5 mg/kg
# [7] = wt mice, single dose of 5 mg/kg
smiles,measurement,setting,value
O=C(Nc1cccnn1)N1CCC(=Cc2cccc(Oc3ccc(C(F)(F)F)cn3)c2)CC1 [PF-04457845],SM hydrolysis,[1]; 50 μM and 1 hour (FIG. 8),promoted SM hydrolysis
same,sphingomyelin levels,"[1]; ASMko neurons, 1 hour incubation (FIG. 5A)",reduced sphingomyelin levels
same,behavior in Tail Suspension Test (depressive state),[2]; ASMko mice,normalized
same,behavior in Tail Suspension Test,[2]; wt mice,no effect
same,"GFAP intensity in cerebellum, hippocampus and cortex",[3]; ASMko mice,reduced GFAP intensity in all areas but the effect was significant only in the cerebellum
same,astrocytes (GFAP),[3]; wt mice,no effect
same,sphingomyelin levels in hippocampus,[4]; [6],high variability
same,sphingomyelin levels reduced in cerebellum,[4]; [6],21%
same,sphingomyelin levels reduced in cortex,[4]; [6],8%
same,sphingomyelin levels reduced in liver,[4]; [6],6%
same,reduction of sphingomyelin in brain areas and liver,[4]; single dose of 0.1 mg/kg,No statistically significant reduction
same,reduction of sphingomyelin in brain areas and liver,[4]; single dose of 1 mg/kg,No statistically significant reduction
same,sphingomyelin levels reduced in cerebellum,[4]; [7],17%
same,sphingomyelin levels reduced in cortex,[4]; [7],23%
same,sphingomyelin levels reduced in hippocampus,[4]; [7],13%
same,sphingomyelin levels reduced in liver,[4]; [7],34%
same,H&E staining of liver (foam cell pattern),[5]; ASMko mice,did not significantly alter this pattern
same,"H&E staining of hippocampus, cerebellum and cortex",[5]; wt and ASMko mice,did not cause significant changes in H&E staining
